Reference: patent US20240034736A1, “HSD17B13 INHIBITORS AND USES THEREOF” (FL2022-001, Inc., priority 2020, published 2024)

Target: Recombinant human HSD17B13 enzyme (Homo sapiens (Human), UniProt Q7Z5P4)
Experiment: HSD17b13 NAD(P)H-Glo Biochemical Assay
Details: for IC50: 50 uM estradiol, 1 mM NAD+, read-out: HSD17β13 IC50; for inhibition at 30 µM: read-out: HSD17β13 inhibition at 30 uM
Summary of the method: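 Luminescent NAD(P)H-Glo detection (1 h, RT) quantified cofactor reduction after a 3 h, 37° C reaction of human HSD17B13 with estradiol (50 uM final) and NAD+ (1 mM final). Compounds were first pre-incubated 20 min at RT with enzyme in Tris pH 7.4 buffer containing Tween-20 and BSA.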

Chain of Recombinant human HSD17B13 enzyme (Q7Z5P4 20-300): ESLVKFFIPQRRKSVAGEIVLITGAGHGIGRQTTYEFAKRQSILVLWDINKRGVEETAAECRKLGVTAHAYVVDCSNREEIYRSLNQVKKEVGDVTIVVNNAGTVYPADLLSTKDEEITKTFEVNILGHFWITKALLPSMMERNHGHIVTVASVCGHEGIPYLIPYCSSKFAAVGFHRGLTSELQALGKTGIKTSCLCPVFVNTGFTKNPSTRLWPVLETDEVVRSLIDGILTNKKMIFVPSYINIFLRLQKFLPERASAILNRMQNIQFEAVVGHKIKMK

| IC50 | inhibition at 30 µM | SMILES |
| --- | --- | --- |
| 1000 to 30000 nM | – | CS(=O)(=O)N1CCN(c2cc3cnn(-c4cc(O)cc(OC(F)(F)F)c4)c3cn2)CC1 [Compound 19.12, 3-(5-(4-(Methylsulfonyl)piperazin-1-yl)-1H-pyrazolo[3,4-c]pyridine-1-yl)-5-(trifluoromethoxy)phenol] |
| 1000 to 30000 nM | – | CS(=O)(=O)N1CCN(c2cc3cn(-c4cc(O)cc(OC(F)(F)F)c4)nc3cn2)CC1 [Compound 19.13, 3-(5-(4-(Methylsulfonyl)piperazin-1-yl)-2H-pyrazolo[3,4-c]pyridin-2-yl)-5-(trifluoromethoxy)phenol] |
| 1000 to 30000 nM | – | CS(=O)(=O)N1CCN(c2cc3cnn(-c4ccc(Cl)c(O)c4)c3cn2)CC1 [Compound 19.14, 2-Chloro-5-(5-(4-(methylsulfonyl)piperazin-1-yl)-1H-pyrazolo[3,4-c]pyridine-1-yl)phenol] |
| 1000 to 30000 nM | – | CS(=O)(=O)N1CCN(c2cc3cn(-c4ccc(Cl)c(O)c4)nc3cn2)CC1 [Compound 19.15, 2-Chloro-5-(5-(4-(methylsulfonyl)piperazin-1-yl)-2H-pyrazolo[3,4-c]pyridine-2-yl)phenol] |
| 1000 to 30000 nM | – | CS(=O)(=O)N1CCN(c2cc3cnn(-c4cc(O)cc(C(F)(F)F)c4)c3cn2)CC1 [Compound 19.16, 3-(5-(4-(Methylsulfonyl)piperazin-1-yl)-1H-pyrazolo[3,4-c]pyridine-1-yl)-5-(trifluoromethyl)phenol] |
| 1000 to 30000 nM | – | CS(=O)(=O)N1CCN(c2cc3cnn(-c4cc(O)c(Cl)c(F)c4)c3cn2)CC1 [Compound 19.17, 2-Chloro-3-fluoro-5-(5-(4-(methylsulfonyl)piperazin-1-yl)-1H-pyrazolo[3,4-c]pyridine-1-yl)phenol] |
| 100 to 1000 nM | – | CS(=O)(=O)N1CCN(c2cc3cn(-c4cc(O)c(Cl)c(F)c4)nc3cn2)CC1 [Compound 19.18, 2-Chloro-3-fluoro-5-(5-(4-(methylsulfonyl)piperazin-1-yl)-2H-pyrazolo[3,4-c]pyridine-2-yl)phenol] |
| 1000 to 30000 nM | – | CS(=O)(=O)N1CCN(c2cc3cnn(-c4cc(O)c(F)cn4)c3cn2)CC1 [Compound 19.19, 5-Fluoro-2-(5-(4-(methylsulfonyl)piperazin-1-yl)-1H-pyrazolo[3,4-c]pyridine-1-yl)pyridine-4-ol] |
| 1000 to 30000 nM | – | CS(=O)(=O)N1CCN(c2cc3cn(-c4cc(O)c(F)cn4)nc3cn2)CC1 [Compound 19.20, 5-Fluoro-2-(5-(4-(methylsulfonyl)piperazin-1-yl)-2H-pyrazolo[3,4-c]pyridine-2-yl)pyridine-4-ol] |
| 100 to 1000 nM | – | CS(=O)(=O)N1CCN(c2cc3cnn(-c4cc(O)c(F)c(Cl)c4)c3cn2)CC1 [Compound 19.21, 3-Chloro-2-fluoro-5-(5-(4-(methylsulfonyl)piperazin-1-yl)-1H-pyrazolo[3,4-c]pyridine-1-yl)phenol] |
| 100 to 1000 nM | – | CS(=O)(=O)N1CCN(c2cc3cn(-c4cc(O)c(F)c(Cl)c4)nc3cn2)CC1 [Compound 19.22, 3-Chloro-2-fluoro-5-(5-(4-(methylsulfonyl)piperazin-1-yl)-2H-pyrazolo[3,4-c]pyridine-2-yl)phenol] |
| 1000 to 30000 nM | – | Cc1cc(-n2ncc3cc(N4CCN(S(C)(=O)=O)CC4)ncc32)cc(O)c1F [Compound 19.23, 2-Fluoro-3-methyl-5-(5-(4-(methylsulfonyl)piperazin-1-yl)-1H-pyrazolo[3,4-c]pyridine-1-yl)phenol] |
| 1000 to 30000 nM | – | Cc1cc(-n2cc3cc(N4CCN(S(C)(=O)=O)CC4)ncc3n2)cc(O)c1F [Compound 19.24, 2-Fluoro-3-methyl-5-(5-(4-(methylsulfonyl)piperazin-1-yl)-2H-pyrazolo[3,4-c]pyridine-2-yl)phenol] |
| 1000 to 30000 nM | – | CS(=O)(=O)N1CCN(c2cc3cnn(-c4ccc(C(F)(F)F)c(O)c4F)c3cn2)CC1 [Compound 19.25, 2-Fluoro-3-(5-(4-(methylsulfonyl)piperazin-1-yl)-1H-pyrazolo[3,4-c]pyridine-1-yl)-6-(trifluoromethyl)phenol] |
| 1000 to 30000 nM | – | CS(=O)(=O)N1CCN(c2cc3cn(-c4ccc(C(F)(F)F)c(O)c4F)nc3cn2)CC1 [Compound 19.26, 2-Fluoro-3-(5-(4-(methylsulfonyl)piperazin-1-yl)-2H-pyrazolo[3,4-c]pyridine-2-yl)-6-(trifluoromethyl)phenol] |
| 1000 to 30000 nM | – | CS(=O)(=O)N1CCN(c2cc3cnn(-c4ccc(Cl)c(O)c4F)c3cn2)CC1 [Compound 19.27, 6-Chloro-2-fluoro-3-(5-(4-(methylsulfonyl)piperazin-1-yl)-1H-pyrazolo[3,4-c]pyridine-1-yl)phenol] |
| 1000 to 30000 nM | – | Cc1cc(-n2ncc3cc(N4CCN(S(C)(=O)=O)CC4)ncc32)c(F)c(O)c1F [Compound 19.28, 2,6-Difluoro-3-methyl-5-(5-(4-(methylsulfonyl)piperazin-1-yl)-1H-pyrazolo[3,4-c]pyridine-1-yl)phenol] |
| 100 to 1000 nM | – | CS(=O)(=O)N1CCN(c2cc3cnn(-c4cc(F)c(F)c(O)c4F)c3cn2)CC1 [Compound 19.29, 2,3,6-Trifluoro-5-(5-(4-(methylsulfonyl)piperazin-1-yl)-1H-pyrazolo[3,4-c]pyridine-1-yl)phenol] |

| IC50 | inhibition at 30 µM | SMILES |
| --- | --- | --- |
| 100 to 1000 nM | – | CS(=O)(=O)N1CCN(c2cc3cn(-c4cc(F)c(F)c(O)c4F)nc3cn2)CC1 [Compound 19.30, 2,3,6-Trifluoro-5-(5-(4-(methylsulfonyl)piperazin-1-yl)-2H-pyrazolo[3,4-c]pyridine-2-yl)phenol] |
| 1000 to 30000 nM | – | CS(=O)(=O)N1CCN(c2cc3cnn(-c4ncc(Cl)c(O)c4F)c3cn2)CC1 [Compound 19.31, 5-Chloro-3-fluoro-2-(5-(4-(methylsulfonyl)piperazin-1-yl)-1H-pyrazolo[3,4-c]pyridine-1-yl)pyridine-4-ol] |
| 100 to 1000 nM | – | CC1(C)COCCN1c1cc2cnn(-c3cc(O)c(F)c(C(F)(F)F)c3)c2cn1 [Compound 19.32, 5-(5-(3,3-Dimethylmorpholino)-1H-pyrazolo[3,4-c]pyridine-1-yl)-2-fluoro-3-(trifluoromethyl)phenol] |
| 100 to 1000 nM | – | CC1CN(S(C)(=O)=O)CCN1c1cc2cnn(-c3cc(O)c(F)c(C(F)(F)F)c3)c2cn1 (centres unmarked) [Compound 19.33, 2-Fluoro-5-(5-(2-methyl-4-(methylsulfonyl)piperazin-1-yl)-1H-pyrazolo[3,4-c]pyridine-1-yl)-3-(trifluoromethyl)phenol] |
| 100 to 1000 nM | – | CC1CN(S(C)(=O)=O)CCN1c1cc2cn(-c3cc(O)c(F)c(C(F)(F)F)c3)nc2cn1 (centres unmarked) [Compound 19.34, 2-Fluoro-5-(5-(2-methyl-4-(methylsulfonyl)piperazin-1-yl)-2H-pyrazolo[3,4-c]pyridine-2-yl)-3-(trifluoromethyl)phenol] |
| – | 49% | CS(=O)(=O)N1CCN(c2cc3cn(-c4cc(O)cc(C#N)c4)nc3cn2)CC1 [Compound 19.35, 3-Hydroxy-5-(5-(4-(methylsulfonyl)piperazin-1-yl)-2H-pyrazolo[3,4-c]pyridine-2-yl)benzonitrile] |
| – | 40% | CS(=O)(=O)N1CCN(c2cc3cnn(-c4ccc(C#N)c(O)c4)c3cn2)CC1 [Compound 19.36, 2-Hydroxy-4-(5-(4-(methylsulfonyl)piperazin-1-yl)-1H-pyrazolo[3,4-c]pyridine-1-yl)benzonitrile] |
| – | 43% | CS(=O)(=O)N1CCN(c2cc3cn(-c4ccc(C#N)c(O)c4)nc3cn2)CC1 [Compound 19.37, 2-Hydroxy-4-(5-(4-(methylsulfonyl)piperazin-1-yl)-2H-pyrazolo[3,4-c]pyridine-2-yl)benzonitrile] |
| 100 to 1000 nM | – | CS(=O)(=O)N1CCN(c2cc3cnn(-c4cc(C(F)(F)F)c(F)c(O)c4F)c3cn2)CC1 [Compound 19.38, 2,6-Difluoro-3-(5-(4-(methylsulfonyl)piperazin-1-yl)-1H-pyrazolo[3,4-c]pyridine-1-yl)-5-(trifluoromethyl)phenol] |
| 1000 to 30000 nM | – | CS(=O)(=O)N1CCN(c2cc3cnn(-c4cccc(O)c4C#N)c3cn2)CC1 [Compound 19.39, 2-Hydroxy-6-(5-(4-(methylsulfonyl)piperazin-1-yl)-1H-pyrazolo[3,4-c]pyridine-1-yl)benzonitrile] |
| – | 39% | CS(=O)(=O)N1CCN(c2cc3cn(-c4cccc(O)c4C#N)nc3cn2)CC1 [Compound 19.40, 2-Hydroxy-6-(5-(4-(methylsulfonyl)piperazin-1-yl)-2H-pyrazolo[3,4-c]pyridine-2-yl)benzonitrile] |
| 1000 to 30000 nM | – | CS(=O)(=O)N1CCN(c2cc3cnn(-c4cc(O)ccc4C#N)c3cn2)CC1 [Compound 19.41, 4-Hydroxy-2-(5-(4-(methylsulfonyl)piperazin-1-yl)-1H-pyrazolo[3,4-c]pyridine-1-yl)benzonitrile] |
| 1000 to 30000 nM | – | Cc1ccc(-n2ncc3cc(N4CCN(S(C)(=O)=O)CC4)ncc32)c(F)c1O [Compound 19.42, 2-Fluoro-6-methyl-3-(5-(4-(methylsulfonyl)piperazin-1-yl)-1H-pyrazolo[3,4-c]pyridine-1-yl)phenol] |
| – | 45% | Cc1ccc(O)c(F)c1-n1ncc2cc(N3CCN(S(C)(=O)=O)CC3)ncc21 [Compound 19.43, 2-Fluoro-4-methyl-3-(5-(4-(methylsulfonyl)piperazin-1-yl)-1H-pyrazolo[3,4-c]pyridine-1-yl)phenol] |
| < 100 nM | – | Cc1nn(-c2cc(C(F)(F)F)c(F)c(O)c2F)c2cnc(N3CCOCC34CC4)cc12 [Compound 19.44, 2,6-Difluoro-3-(3-methyl-5-(7-oxa-4-azaspiro[2.5]octan-4-yl)-1H-pyrazolo[3,4-c]pyridine-1-yl)-5-(trifluoromethyl)phenol] |
| 100 to 1000 nM | – | Cc1nn(-c2cc(C(F)(F)F)c(F)c(O)c2F)c2cnc(N3CCN(S(C)(=O)=O)CC3)cc12 [Compound 19.45, 2,6-Difluoro-3-(3-methyl-5-(4-(methylsulfonyl)piperazin-1-yl)-1H-pyrazolo[3,4-c]pyridine-1-yl)-5-(trifluoromethyl)phenol] |
| < 100 nM | – | CS(=O)(=O)N1CCN(c2cc3cn(-c4cc(O)c(F)c(C(F)(F)F)c4)nc3cc2Cl)CC1 [Compound 19.46, 5-(6-Chloro-5-(4-(methylsulfonyl)piperazin-1-yl)-2H-indazol-2-yl)-2-fluoro-3-(trifluoromethyl)phenol] |
